Patent US9743676B2, “Pesticidal compositions comprising a solid insecticide and an essential oil” (AirRx Antimicrobial Sciences Inc., priority 2015, dated 2017)
Read-outs that look alike come from different tables or passages of the source.

Key:
[1] = test system: nonresistant strain of bed bug; conditions: for Residual Effect (% Knockdown & Mortality/hrs) 24: 24 hrs; for Residual Effect (% Knockdown & Mortality/hrs) 48: 48 hrs; for Residual Effect (% Knockdown & Mortality/hrs) 72: 72 hrs
Procedure: The compositions and individual components thereof were prepared to provide the appropriate rates of application for combinations of acetamiprid, chlorfenapyr, and rosemary oil, as well as acetamiprid, chlorfenapyr, and rosemary oil paired and alone. The insecticide formula(s) were aliquoted (100 μL) into a glass petri dish (100 mm). Filter paper was placed on top of the solution. Ten adult bed bugs were then placed on top of the filter paper and morbidity and moribundity (knockdown) and mortality was recorded at 5 minutes for each treatment combination and the control. After 2 hours, bed bugs were removed from the treated surface and placed in a holding chamber. Bed bug morbidity, moribund, and mortality was recorded every 24 hours for 7 days.
Dash indicates no knockdown or mortality during exposure.

[2] = test system: adult bed bugs resistant strain (UMC) colony; test: Contact lethal time of pyrethroids and rosemary oil on treated filter paper, Example 4; format: in vivo, bed bug; conditions: rate 0.01 % by weight
Procedure: The control is 100 μL […]. Filter paper was then placed on top of the solution.

Structure (SMILES)	2 hour exposure (min) LT50 ([1]; rate 0.01 % by weight)	2 hour exposure (min) LT99 ([1]; rate 0.01 % by weight)	Residual Effect (% Knockdown & Mortality/hrs) 24 ([1]; rate 0.01 % by weight)	Residual Effect (% Knockdown & Mortality/hrs) 48 ([1]; rate 0.01 % by weight)	Residual Effect (% Knockdown & Mortality/hrs) 72 ([1]; rate 0.01 % by weight)	2 hour exposure (min) LT50 ([1]; rate 0.1 % by weight)	2 hour exposure (min) LT99 ([1]; rate 0.1 % by weight)	Residual Effect (% Knockdown & Mortality/hrs) 24 ([1]; rate 0.1 % by weight)	Residual Effect (% Knockdown & Mortality/hrs) 48 ([1]; rate 0.1 % by weight)	Residual Effect (% Knockdown & Mortality/hrs) 72 ([1]; rate 0.1 % by weight)	2 hour exposure (min) LT50 ([1]; rate 1.0 % by weight)	2 hour exposure (min) LT99 ([1]; rate 1.0 % by weight)	Residual Effect (% Knockdown & Mortality/hrs) 24 ([1]; rate 1.0 % by weight)	Residual Effect (% Knockdown & Mortality/hrs) 48 ([1]; rate 1.0 % by weight)	Residual Effect (% Knockdown & Mortality/hrs) 72 ([1]; rate 1.0 % by weight)	LT50 [2]	LT95 [2]
CC(=NC#N)N(C)Cc1ccc(Cl)nc1 [Acetamiprid, N-[(6-chloro-3-pyridyl)methyl]-N′-cyano-N-methyl-acetamidine]	39.3 min	38038.1 min	10.0%	20.0%	20.0%	22.4 min	12565.9 min	20.0%	10.0%	10.0%	7.0 min	510.8 min	40.0%	30.0%	50.0%		
CCOCn1c(-c2ccc(Cl)cc2)c(C#N)c(Br)c1C(F)(F)F [Chlorfenapyr, 4-Bromo-2-(4-chlorophenyl)-1-ethoxymethyl-5-trifluoromethyl-1H-pyrrole-3-carbonitrile]			0.0%	0.0%	0.0%			30.0%	50.0%	70.0%			40.0%	80.0%	100.0%		
CC1(C)C(C=C(Cl)Cl)C1C(=O)OCc1cccc(Oc2ccccc2)c1 (stereo not shown) [Permethrin, permethrin]																20.78 min	490.348 min
CC(C)=CC1C(C(=O)OCN2C(=O)C3=C(CCCC3)C2=O)C1(C)C (stereo not shown) [Tetramethrin, tetramethrin]																14000 min	6.5e+06 min
